Key:
Test in all cases: Kinase panel, CaNDY 1 µM
Type in all cases: biochemical
Conditions in all cases: CaNDY 1 µM relative to DMSO
AKT2 = molecular target: T1, AKT2 (Homo sapiens, UniProt P31751)
T1 construct: purchased Carna Biosciences
Procedure, shortened: (§1)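 Mobility-shift kinase assay using N-terminal GST-fused, full-length recombinant human enzymes purified by glutathione affinity; incubation one hour at ambient temperature.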

ALK(F1174L) = molecular target: T2, ALK(F1174L) (Homo sapiens, UniProt Q9UM73, F1174L)
T2 construct: purchased Carna Biosciences
Procedure, shortened: as §1

CDK2/CycA2 = molecular target: T3, CDK2/CycA2 (Homo sapiens, UniProt P24941)
T3 construct: purchased Carna Biosciences
Procedure, shortened: as §1

CDK7/CycH/MAT1 = molecular target: T4, CDK7/CycH/MAT1 (Homo sapiens, UniProt P50613)
T4 construct: purchased Carna Biosciences
Procedure, shortened: as §1

COT_Cascade = molecular target: T5, COT_Cascade (Homo sapiens, UniProt P41279)
T5 construct: purchased Carna Biosciences
Procedure, shortened: as §1

DDR2 = molecular target: T6, DDR2 (Homo sapiens, UniProt Q16832)
T6 construct: purchased Carna Biosciences
Procedure, shortened: as §1

DYRK2 = molecular target: T7, DYRK2 (Homo sapiens, UniProt Q92630)
T7 construct: purchased Carna Biosciences
T7 sequence (Q92630 whole entry): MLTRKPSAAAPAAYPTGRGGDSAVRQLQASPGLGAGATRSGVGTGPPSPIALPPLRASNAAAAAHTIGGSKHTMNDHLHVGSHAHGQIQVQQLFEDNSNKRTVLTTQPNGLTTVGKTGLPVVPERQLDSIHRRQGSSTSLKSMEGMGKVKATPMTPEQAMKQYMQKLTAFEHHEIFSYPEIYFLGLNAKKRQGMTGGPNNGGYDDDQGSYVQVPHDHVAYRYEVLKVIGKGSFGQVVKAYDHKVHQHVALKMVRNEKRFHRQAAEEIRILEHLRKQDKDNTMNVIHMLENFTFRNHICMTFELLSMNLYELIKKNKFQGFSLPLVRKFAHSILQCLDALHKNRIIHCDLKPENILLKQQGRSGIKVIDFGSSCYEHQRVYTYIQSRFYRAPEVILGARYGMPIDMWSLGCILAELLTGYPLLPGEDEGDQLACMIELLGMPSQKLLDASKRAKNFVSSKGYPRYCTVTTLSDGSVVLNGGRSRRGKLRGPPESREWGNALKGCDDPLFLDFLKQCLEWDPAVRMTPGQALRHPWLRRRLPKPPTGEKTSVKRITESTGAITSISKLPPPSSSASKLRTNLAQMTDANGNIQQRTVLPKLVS
Procedure, shortened: as §1

EPHA1 = molecular target: T8, EPHA1 (Homo sapiens, UniProt P21709)
T8 construct: purchased Carna Biosciences
Procedure, shortened: as §1

GSK3β = molecular target: T9, GSK3β (Homo sapiens, UniProt P49841)
T9 construct: purchased Carna Biosciences
T9 sequence (P49841 whole entry): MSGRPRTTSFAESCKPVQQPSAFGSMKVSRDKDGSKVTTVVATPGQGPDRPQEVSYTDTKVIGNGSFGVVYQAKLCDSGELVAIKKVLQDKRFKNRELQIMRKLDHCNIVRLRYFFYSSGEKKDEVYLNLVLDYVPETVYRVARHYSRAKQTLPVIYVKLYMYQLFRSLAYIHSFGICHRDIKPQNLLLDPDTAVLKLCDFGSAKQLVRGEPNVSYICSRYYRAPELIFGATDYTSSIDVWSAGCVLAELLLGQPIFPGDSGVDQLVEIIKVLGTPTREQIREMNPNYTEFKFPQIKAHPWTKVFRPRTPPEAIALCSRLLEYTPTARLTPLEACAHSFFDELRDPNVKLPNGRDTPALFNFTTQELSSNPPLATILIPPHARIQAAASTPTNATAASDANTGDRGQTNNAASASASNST
Procedure, shortened: as §1

HER4 = molecular target: T10, HER4 (Homo sapiens, UniProt Q15303)
T10 construct: purchased Carna Biosciences
T10 sequence (Q15303 26-1308): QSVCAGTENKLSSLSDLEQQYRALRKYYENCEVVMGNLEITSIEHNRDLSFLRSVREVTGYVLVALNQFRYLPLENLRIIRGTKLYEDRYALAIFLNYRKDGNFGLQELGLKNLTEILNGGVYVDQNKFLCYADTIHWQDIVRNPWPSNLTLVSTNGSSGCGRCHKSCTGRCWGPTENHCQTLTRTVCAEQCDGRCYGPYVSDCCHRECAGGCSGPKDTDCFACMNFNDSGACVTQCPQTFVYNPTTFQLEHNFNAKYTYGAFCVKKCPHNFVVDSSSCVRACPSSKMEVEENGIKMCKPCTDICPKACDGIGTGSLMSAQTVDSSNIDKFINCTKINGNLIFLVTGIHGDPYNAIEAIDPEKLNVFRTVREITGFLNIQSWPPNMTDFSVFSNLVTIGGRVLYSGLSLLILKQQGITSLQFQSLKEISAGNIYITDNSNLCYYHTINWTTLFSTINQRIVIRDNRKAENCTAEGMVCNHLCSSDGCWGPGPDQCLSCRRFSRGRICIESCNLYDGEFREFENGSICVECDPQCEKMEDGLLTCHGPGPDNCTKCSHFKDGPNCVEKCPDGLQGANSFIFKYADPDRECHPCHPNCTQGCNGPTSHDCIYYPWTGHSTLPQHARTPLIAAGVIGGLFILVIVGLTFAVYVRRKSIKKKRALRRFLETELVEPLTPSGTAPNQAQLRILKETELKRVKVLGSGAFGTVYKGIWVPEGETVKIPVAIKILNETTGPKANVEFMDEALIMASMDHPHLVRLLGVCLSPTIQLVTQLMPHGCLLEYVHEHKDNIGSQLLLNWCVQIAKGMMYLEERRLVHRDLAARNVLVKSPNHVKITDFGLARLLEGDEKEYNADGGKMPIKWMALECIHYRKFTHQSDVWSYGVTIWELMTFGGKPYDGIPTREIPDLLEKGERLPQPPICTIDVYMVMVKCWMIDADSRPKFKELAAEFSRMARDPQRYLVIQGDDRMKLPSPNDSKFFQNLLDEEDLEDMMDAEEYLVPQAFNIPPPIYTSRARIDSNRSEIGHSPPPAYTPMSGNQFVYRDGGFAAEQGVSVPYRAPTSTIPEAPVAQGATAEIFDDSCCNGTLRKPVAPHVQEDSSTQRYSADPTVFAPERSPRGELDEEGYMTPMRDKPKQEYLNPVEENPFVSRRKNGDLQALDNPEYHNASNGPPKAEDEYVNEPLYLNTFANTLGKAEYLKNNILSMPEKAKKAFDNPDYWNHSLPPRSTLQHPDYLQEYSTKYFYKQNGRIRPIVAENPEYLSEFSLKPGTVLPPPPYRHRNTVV
Procedure, shortened: as §1

HIPK1 = molecular target: T11, HIPK1 (Homo sapiens, UniProt Q86Z02)
T11 construct: purchased Carna Biosciences
Procedure, shortened: as §1

IKKα = molecular target: T12, IKKα (Homo sapiens, UniProt O15111)
T12 construct: purchased Carna Biosciences
Procedure, shortened: as §1

JNK1 = molecular target: T13, JNK1 (Homo sapiens, UniProt P45983)
T13 construct: purchased Carna Biosciences
T13 sequence (P45983 whole entry): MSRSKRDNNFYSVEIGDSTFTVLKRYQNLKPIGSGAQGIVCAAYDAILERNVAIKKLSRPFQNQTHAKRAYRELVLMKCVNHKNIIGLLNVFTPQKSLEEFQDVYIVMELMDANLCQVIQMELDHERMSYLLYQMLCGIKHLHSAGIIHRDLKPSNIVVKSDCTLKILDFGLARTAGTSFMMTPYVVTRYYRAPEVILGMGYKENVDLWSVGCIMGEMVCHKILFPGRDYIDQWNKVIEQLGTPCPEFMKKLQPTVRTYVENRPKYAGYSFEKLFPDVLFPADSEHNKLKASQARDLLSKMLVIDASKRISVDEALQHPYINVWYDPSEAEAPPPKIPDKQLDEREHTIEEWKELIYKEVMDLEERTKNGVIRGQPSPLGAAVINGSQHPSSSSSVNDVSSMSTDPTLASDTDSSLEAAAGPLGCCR
Procedure, shortened: as §1

JNK3 = molecular target: T14, JNK3 (Homo sapiens, UniProt P53779)
T14 construct: purchased Carna Biosciences
Procedure, shortened: as §1

KIT(D816V) = molecular target: T15, KIT(D816V) (Homo sapiens, UniProt P10721, D816V)
T15 construct: purchased Carna Biosciences
T15 sequence (P10721 26-976 D816V): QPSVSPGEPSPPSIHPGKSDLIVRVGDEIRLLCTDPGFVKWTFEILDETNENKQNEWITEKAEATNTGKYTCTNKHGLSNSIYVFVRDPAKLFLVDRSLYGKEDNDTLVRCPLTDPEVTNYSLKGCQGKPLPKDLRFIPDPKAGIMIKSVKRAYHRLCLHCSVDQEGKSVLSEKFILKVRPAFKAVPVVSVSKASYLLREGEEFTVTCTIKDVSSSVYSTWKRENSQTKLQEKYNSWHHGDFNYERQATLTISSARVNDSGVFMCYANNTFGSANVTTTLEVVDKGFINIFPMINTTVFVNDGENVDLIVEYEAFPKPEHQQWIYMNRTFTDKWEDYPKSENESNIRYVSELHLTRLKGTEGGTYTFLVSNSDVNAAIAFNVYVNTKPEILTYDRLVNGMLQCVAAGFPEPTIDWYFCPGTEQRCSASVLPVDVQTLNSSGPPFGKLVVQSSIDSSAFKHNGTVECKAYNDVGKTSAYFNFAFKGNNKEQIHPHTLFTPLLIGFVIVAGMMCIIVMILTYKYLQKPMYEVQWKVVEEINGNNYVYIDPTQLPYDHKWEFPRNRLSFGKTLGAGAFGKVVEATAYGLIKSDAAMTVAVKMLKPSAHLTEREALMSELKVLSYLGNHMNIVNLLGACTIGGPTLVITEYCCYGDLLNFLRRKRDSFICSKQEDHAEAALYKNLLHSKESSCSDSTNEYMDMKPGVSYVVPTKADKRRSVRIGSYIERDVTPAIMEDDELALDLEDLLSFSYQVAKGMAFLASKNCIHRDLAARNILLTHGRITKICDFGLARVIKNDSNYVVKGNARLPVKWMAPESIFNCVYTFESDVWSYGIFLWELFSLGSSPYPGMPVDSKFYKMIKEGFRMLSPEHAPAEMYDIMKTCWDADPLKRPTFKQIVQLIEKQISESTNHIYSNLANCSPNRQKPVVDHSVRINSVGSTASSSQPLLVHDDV
Procedure, shortened: as §1

KIT(T670I) = molecular target: T16, KIT(T670I) (Homo sapiens, UniProt P10721, T670I)
T16 construct: purchased Carna Biosciences
Procedure, shortened: as §1

KIT(V654A) = molecular target: T17, KIT(V654A) (Homo sapiens, UniProt P10721, V654A)
T17 construct: purchased Carna Biosciences
T17 sequence (P10721 26-976 V654A): as the sequence (P10721 26-976 D816V) above, with V629A, V791D counted along it
Procedure, shortened: as §1

LCK = molecular target: T18, LCK (Homo sapiens, UniProt P06239)
T18 construct: purchased Carna Biosciences
Procedure, shortened: as §1

LTK = molecular target: T19, LTK (Homo sapiens, UniProt P29376)
T19 construct: purchased Carna Biosciences
Procedure, shortened: as §1

MAPKAPK2 = molecular target: T20, MAPKAPK2 (Homo sapiens, UniProt P49137)
T20 construct: purchased Carna Biosciences
Procedure, shortened: as §1

MET(Y1235D) = molecular target: T21, MET(Y1235D) (Homo sapiens, UniProt P08581, Y1235D)
T21 construct: purchased Carna Biosciences
Procedure, shortened: as §1

MGC42105 = molecular target: T22, MGC42105 (Homo sapiens, UniProt Q8IY84)
T22 construct: purchased Carna Biosciences
T22 sequence (Q8IY84 whole entry): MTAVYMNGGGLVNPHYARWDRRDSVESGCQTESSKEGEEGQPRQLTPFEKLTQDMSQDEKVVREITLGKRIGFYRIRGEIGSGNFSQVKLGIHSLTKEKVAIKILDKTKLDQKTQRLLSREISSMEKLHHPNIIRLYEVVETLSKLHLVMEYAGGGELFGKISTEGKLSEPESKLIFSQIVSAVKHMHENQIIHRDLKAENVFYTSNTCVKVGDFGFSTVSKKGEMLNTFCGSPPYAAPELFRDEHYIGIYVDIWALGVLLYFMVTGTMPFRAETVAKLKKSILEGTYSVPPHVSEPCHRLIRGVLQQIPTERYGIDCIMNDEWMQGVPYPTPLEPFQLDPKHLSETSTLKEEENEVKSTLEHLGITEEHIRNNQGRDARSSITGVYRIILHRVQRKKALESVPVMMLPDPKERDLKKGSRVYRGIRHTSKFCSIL
Procedure, shortened: as §1

MOS_Cascade = molecular target: T23, MOS_Cascade (Homo sapiens, UniProt P00540)
T23 construct: purchased Carna Biosciences
Procedure, shortened: as §1

MSSK1 = molecular target: T24, MSSK1 (Homo sapiens, UniProt Q9UPE1)
T24 construct: purchased Carna Biosciences
Procedure, shortened: as §1

PAK2 = molecular target: T25, PAK2 (Homo sapiens, UniProt Q13177)
T25 construct: purchased Carna Biosciences
Procedure, shortened: as §1

PKD1 = molecular target: T26, PKD1 (Homo sapiens, UniProt Q15139)
T26 construct: purchased Carna Biosciences
Procedure, shortened: as §1

PRKX = molecular target: T27, PRKX (Homo sapiens, UniProt P51817)
T27 construct: purchased Carna Biosciences
T27 sequence (P51817 whole entry): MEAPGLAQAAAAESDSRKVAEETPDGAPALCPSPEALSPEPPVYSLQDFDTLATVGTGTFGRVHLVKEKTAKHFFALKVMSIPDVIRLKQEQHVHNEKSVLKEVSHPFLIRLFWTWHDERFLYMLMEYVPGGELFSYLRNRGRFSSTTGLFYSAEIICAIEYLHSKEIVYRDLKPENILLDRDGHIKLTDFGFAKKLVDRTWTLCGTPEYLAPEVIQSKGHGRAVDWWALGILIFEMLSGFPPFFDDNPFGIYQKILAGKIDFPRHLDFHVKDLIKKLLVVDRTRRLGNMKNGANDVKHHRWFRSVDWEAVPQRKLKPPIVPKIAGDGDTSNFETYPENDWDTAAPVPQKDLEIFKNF
Procedure, shortened: as §1

ROCK2 = molecular target: T28, ROCK2 (Homo sapiens, UniProt O75116)
T28 construct: purchased Carna Biosciences
Procedure, shortened: as §1

RSK2 = molecular target: T29, RSK2 (Homo sapiens, UniProt P51812)
T29 construct: purchased Carna Biosciences
Procedure, shortened: as §1

RSK3 = molecular target: T30, RSK3 (Homo sapiens, UniProt Q15349)
T30 construct: purchased Carna Biosciences
Procedure, shortened: as §1

SGK3 = molecular target: T31, SGK3 (Homo sapiens, UniProt Q96BR1)
T31 construct: purchased Carna Biosciences
T31 sequence (Q96BR1 whole entry): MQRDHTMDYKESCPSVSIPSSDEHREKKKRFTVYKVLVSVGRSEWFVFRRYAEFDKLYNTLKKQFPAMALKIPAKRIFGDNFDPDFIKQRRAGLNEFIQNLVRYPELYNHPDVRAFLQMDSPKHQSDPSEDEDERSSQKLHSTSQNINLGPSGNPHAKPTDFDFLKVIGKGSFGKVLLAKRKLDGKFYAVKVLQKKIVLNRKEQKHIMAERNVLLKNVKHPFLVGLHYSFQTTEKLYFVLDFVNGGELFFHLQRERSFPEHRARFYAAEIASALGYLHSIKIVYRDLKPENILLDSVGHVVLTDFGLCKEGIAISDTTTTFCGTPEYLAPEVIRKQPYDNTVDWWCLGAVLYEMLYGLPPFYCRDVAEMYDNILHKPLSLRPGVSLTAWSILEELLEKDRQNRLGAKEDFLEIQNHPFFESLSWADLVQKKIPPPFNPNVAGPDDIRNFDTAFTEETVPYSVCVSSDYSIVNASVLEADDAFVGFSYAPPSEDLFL
Procedure, shortened: as §1

SRPK1 = molecular target: T32, SRPK1 (Homo sapiens, UniProt Q96SB4)
T32 construct: purchased Carna Biosciences
Procedure, shortened: as §1

TBK1 = molecular target: T33, TBK1 (Homo sapiens, UniProt Q9UHD2)
T33 construct: purchased Carna Biosciences
Procedure, shortened: as §1

TSSK2 = molecular target: T34, TSSK2 (Homo sapiens, UniProt Q96PF2)
T34 construct: purchased Carna Biosciences
Procedure, shortened: as §1

skMLCK = molecular target: T35, skMLCK (Homo sapiens, UniProt Q9H1R3)
T35 construct: purchased Carna Biosciences
Procedure, shortened: as §1

SMILES: [H]/N=C1/NC(=O)C(=Cc2ccc3c(c2)CCO3)S1 [CaNDY, (Z)-5-[(2,3-dihydrobenzofuran-5-yl)methylene]-2-iminothiazolidin-4-one]
- remaining activity at 1 µM (AKT2): 105%
- remaining activity at 1 µM (ALK(F1174L)): 97.9%
- %Activity (CDK2/CycA2): 86.3%
- remaining activity at 1 µM (CDK7/CycH/MAT1): 93.6%
- remaining activity at 1 µM (COT_Cascade): 72.9%
- remaining activity at 1 µM (DDR2): 101%
- remaining activity at 1 µM (DYRK2): 20.3%
- remaining activity at 1 µM (EPHA1): 95.5%
- remaining activity at 1 µM (GSK3β): 74.1%
- remaining activity at 1 µM (HER4): 111%
- remaining activity at 1 µM (HIPK1): 30.9%
- remaining activity at 1 µM (IKKα): 95.7%
- %Activity (JNK1): 102.4%
- %Activity (JNK3): 100.8%
- remaining activity at 1 µM (KIT(D816V)): 92.2%
- remaining activity at 1 µM (KIT(T670I)): 96.6%
- remaining activity at 1 µM (KIT(V654A)): 98.5%
- remaining activity at 1 µM (LCK): 99%
- remaining activity at 1 µM (LTK): 96.9%
- remaining activity at 1 µM (MAPKAPK2): 100%
- %Activity (MET(Y1235D)): 99.0%
- remaining activity at 1 µM (MGC42105): 102%
- remaining activity at 1 µM (MOS_Cascade): 92.4%
- remaining activity at 1 µM (MSSK1): 98%
- remaining activity at 1 µM (PAK2): 101%
- remaining activity at 1 µM (PKD1): 72.9%
- remaining activity at 1 µM (PRKX): 97.6%
- remaining activity at 1 µM (ROCK2): 103%
- remaining activity at 1 µM (RSK2): 91.1%
- remaining activity at 1 µM (RSK3): 91.4%
- remaining activity at 1 µM (SGK3): 93.3%
- remaining activity at 1 µM (SRPK1): 101%
- remaining activity at 1 µM (TBK1): 100%
- remaining activity at 1 µM (TSSK2): 102%
- remaining activity at 1 µM (skMLCK): 96.2%

Source: article PMC4522657, “Identification of a DYRK1A Inhibitor that Induces Degradation of the Target Kinase using Co-chaperone CDC37 fused with Luciferase nanoKAZ” (Scientific Reports, 2015)
